Where two headings read alike, the source gives them in different places.
What was measured:
Assay type in all cases: cell-based, human
MCF-7 cells [1] = assay: cells; details: 72 hours post transfection
MCF-7 cells [2] = assay: Clonogenic assay, siRNA-transfected MCF-7 cells; details: FIG. 7; for cell survival, calumenin-directed siRNA and drug treatment as compared to drug treatment alone: MCF-7, IC10 and IC90 drug concentrations
Procedure: A clonogenic assay generated additional information concerning cell viability after drug-resistant cells were exposed to siRNA and chemotherapeutics. Briefly, transfected MCF-7 cells were seeded in triplicate into 24-well plates at 5×10^3 cells/well 48 hrs post-transfection. The cells were incubated for an additional 16-24 hrs before they were exposed to increasing concentrations of cytotoxic drugs. […] The cells were further incubated for an additional 7 days. At the end of the incubation, the cells were stained with addition of a 0.5% Methylene Blue solution in 50% ethanol for 15 min. at RT. The staining solution was then removed and plates were dried overnight. The plates were scanned and the stained colonies were solubilized in 0.1% SDS. The absorbance of the resulting solution was determined by spectrophotometry at 660 nm. […] The same results were found for cells treated with vincristine and calumenin-directed siRNA as compared to vincristine alone (FIG. 7).

MCF-7 cells [3] = assay: cells; details: for IC50: Homo sapiens, MCF7; for IC50 / IC10: MCF-7 cells, determined from MTT experiments; for fold lower viability to drug treatment as compared to control cells / fold more sensitive to drug: calumenin-depleted MCF-7 cells; for fold lower viability to drug treatment as compared to control cells: FIGS. 6C and 6D; for fold more sensitive to drug: FIGS. 6A and 6B
Procedure: (§1) For a typical siRNA transfection, […] of the annealed siRNA duplex was mixed with 1.4 ml of Opti-MEM reagent (Invitrogen). In another tube, […] of Oligofectamine reagent (Invitrogen, Carlsbad, Calif.) was mixed with […] of Opti-MEM. The two solutions were combined and mixed gently by inversion and incubated for 20 min. at RT. The resulting solution was added to the cultured cells drop by drop in a 10 cm dish (cells are approximately 40-50% confluent). The next day the transfected cells were trypsinized and seeded in 6 or 96-well plates and further incubated for the indicated amount of time (assay dependent) before further analysis.
(§2) Cell survival was determined using the MTT cytotoxicity assay (see, e.g., Tokuyama et al. (2005) Anticancer Res. 25(1A): 17-22). Small interfering RNA transfected cells were seeded in triplicate into 96-well plates at 5×10^3 cells/well 48 hrs post-transfection. The cells were incubated for an additional 16 to 24 hrs before they were exposed to increasing concentrations of cytotoxic drugs. Doxorubicin (adriamycin), cisplatin, taxol, vinblastine, vincristine, and mitoxantrone were all purchased from Sigma Corp. (St. Louis, Mo.). Stocks were made as follows: 6 mM for doxorubicin, 1.1 mM for vincristine and vinblastine; 1.1 mM for taxol, 50 mM for cisplatin both in DMSO; and 0.97 mM mitoxantrone in ethanol. Appropriate dilutions were made in the respective media for each cell line. Following addition of drugs, incubation was continued for an additional 72 hrs. […] of MTT dye (5 mg/ml) were added into each well and the plate was further incubated at 37° C. for 4 hrs. The dye was solubilized with 10% Triton X-100, 0.01 N HCl and further incubated at 37° C. in the dark for 30 min. Cell viability was determined by measure of absorption at 570 nm in a Wallac multiwell plate reader (PerkinElmer, Inc., Boston, Mass.). The averages of triplicate wells were plotted using the Prism software (GraphPad Software, Inc., San Diego, Calif.).

[4] = tested on: SKOV3 ovarian adenocarcinoma cell lines; assay: MTT cytotoxicity assay, calumenin-depleted SKOV3 cells; details: Table 3; calumenin-depleted SKOV3 vs mock siRNA-transfected cells
Procedure: as §1, §2

[5] = tested on: MDA breast adenocarcinoma cell line; assay: MTT cytotoxicity assay, calumenin-depleted MDA cells; details: Table 3; calumenin-depleted MDA vs mock siRNA-transfected cells; NC = no change occurred
Procedure: as §1, §2

[6] = Homo sapiens, MCF7 cells transfected with calumenin-directed siRNA (table: vector expressing calumenin-encoding RNA), read-out: EC50, Calumenin
[7] = Homo sapiens, mock vector transfected MCF7 cells, read-out: EC50, Control
[8] = calumenin depleted MCF-7, IC50 drug treatment level
[9] = Table 2, calumenin vs control transfected MCF7 cells
[10] = Table 3, calumenin-depleted MCF-7 vs mock siRNA-transfected cells

SMILES | EC50 (MCF-7 cells [1]; [6]) [nM] | EC50 (MCF-7 cells [1]; [7]) [nM] | sensitivity of calumenin silenced MCF-7 cells to drug (MCF-7 cells [2]) | cell survival, calumenin-directed siRNA and drug treatment as compared to drug treatment alone (MCF-7 cells [2]) | more sensitive to drug than cells transfected with control siRNA (MCF-7 cells [2]; [8]) [%] | more sensitive to drug than cells transfected with control siRNA (MCF-7 cells [2]; calumenin depleted MCF-7, IC90 drug treatment level) [%] | IC50 (MCF-7 cells [3]) [nM] | IC10 (MCF-7 cells [3]) [nM] | IS: increased sensitivity to the particular drug (MCF-7 cells [3]; [9]) [× IS] | IS: increased sensitivity to the particular drug (MCF-7 cells [3]; [10]) [× IS] | fold lower viability to drug treatment as compared to control cells (MCF-7 cells [3]) [fold] | IS: increased sensitivity to the particular drug [4] [× IS] | IS: increased sensitivity to the particular drug [5] [× IS] | fold more sensitive to drug (MCF-7 cells [3]) | EC50 (MCF-7 cells [1]; MCF7 cells transfected with calumenin-directed siRNA (table: vector expressing calumenin-encoding RNA), read-out: EC50, Calumenin) [nM] | EC50 (MCF-7 cells [1]; mock vector transfected MCF7 cells, read-out: EC50, Control) [nM] | more sensitive to drug than cells transfected with control siRNA (MCF-7 cells [2]; calumenin-directed siRNA transfected MCF-7, IC10 drug treatment level) [%]
CC[C@]1(O)C[C@H]2CN(CCc3c([nH]c4ccccc34)[C@@](C(=O)OC)(c3cc4c(cc3OC)N(C=O)[C@H]3[C@@](O)(C(=O)OC)[C@H](OC(C)=O)[C@]5(CC)C=CCN6CC[C@]43[C@@H]65)C2)C1 [Vincristine] | 0.00274 | 0.0471 | substantial increase | same results | 20 | 33 | 0.25 | 5000 | 17.2 | 17 | 17 | 4 | 3.8 | – | – | – | –
O=C1c2c(O)ccc(O)c2C(=O)c2c(NCCNCCO)ccc(NCCNCCO)c21 [Mitoxantrone] | 1.38 | 6.04 | – | – | – | – | – | – | 4.4 | 4.4 | – | 1.6 | 6 | four | – | – | –
COc1cc([C@@H]2c3cc4c(cc3[C@@H](O[C@@H]3O[C@@H]5CO[C@@H](C)O[C@H]5[C@H](O)[C@H]3O)[C@H]3COC(=O)[C@H]23)OCO4)cc(OC)c1O [Etoposide] | 957 | 1200 | – | – | – | – | – | – | 1.3 | – | – | – | – | – | – | – | –
CC[C@]1(O)C[C@@H]2CN(CCc3c([nH]c4ccccc34)[C@@](C(=O)OC)(c3cc4c(cc3OC)N(C)[C@H]3[C@@](O)(C(=O)OC)[C@H](OC(C)=O)[C@]5(CC)C=CCN6CC[C@]43[C@@H]65)C2)C1 [Vinblastine] | – | 0.00149 | – | – | – | – | – | – | 656.9 | – | – | – | – | – | – | – | –
N.N.[Cl][Pt][Cl] [Cisplatin] | – | – | – | – | – | – | – | – | 8.5 | 8.5 | 9 | 3.3 | – | – | 2240 | 19100 | –
CC(=O)O[C@@]12CO[C@@H]1C[C@H](O)[C@@]1(C)C(=O)[C@H](O)C3=C(C)[C@@H](OC(=O)[C@H](O)[C@@H](NC(=O)OC(C)(C)C)c4ccccc4)C[C@@](O)([C@@H](OC(=O)c4ccccc4)[C@H]21)C3(C)C [Docetaxel] | 0.00463 | 0.00976 | – | – | – | – | – | – | 2.1 | – | – | – | – | – | – | – | –
CC(=O)O[C@H]1C(=O)[C@@]2(C)[C@H]([C@H](OC(=O)c3ccccc3)[C@]3(O)C[C@H](OC(=O)[C@H](O)[C@@H](NC(=O)c4ccccc4)c4ccccc4)C(C)=C1C3(C)C)[C@]1(OC(C)=O)CO[C@@H]1C[C@@H]2O [Taxol] | – | – | substantial increase | significantly decreased | 50 | – | 100 | 1 | 4130.2 | >10 | – | 2.1 | 3.8 | – | – | – | 30
COc1cccc2c1C(=O)c1c(O)c3c(c(O)c1C2=O)C[C@@](O)(C(=O)CO)C[C@@H]3O[C@H]1C[C@H](N)[C@H](O)[C@H](C)O1 [Doxorubicin] | 27.4 | 50 | – | – | – | – | – | – | 1.8 | 1.8 | – | 1.6 | 2.4 | two | – | – | –
